In patent publication US20160038438A1, “COMBINATION OF NORDIHYDROGUAIARETIC ACID AND AN AMINOGLYCOSIDE” (HELPERBY THERAPEUTICS LIMITED, priority 2013, published 2016):

Key:
enterobacteria = details: cited from earlier work
log phase S. aureus [1] = assay: Chequerboard method, HT013006 (NDGA) with gentamycin, log phase S. aureus; assay type: cell-based, Staphylococcus aureus; details: for MIC before combination: drug alone, log phase S. aureus
Protocol: Log phase growth of S. aureus was carried out as described in the art. HT013006 in combination with gentamycin against log phase S. aureus using chequerboard method The effects of combination were examined by calculating the fractional inhibitory concentration index (FICI) of each combination, as follows: (MIC of drug A, tested in combination)/(MIC of drug A, tested alone)+(MIC of drug B, tested in combination)/(MIC of drug B, tested alone). The interaction of the combination was defined as showing synergy if the FICI was ≦0.5, no interaction if the FICI was >0.5 but <4.0 and antagonism if the FICI was >4.0.

yeast pathogens = details: against yeast pathogens; cited from earlier work
log phase S. aureus [2] = assay: Time kill curve, HT013006 alone and with gentamycin, log phase S. aureus; assay type: cell-based, Staphylococcus aureus
Excerpt: HT013006 alone and in combination with gentamycin against log phase S. aureus using time kill curve.

[3] = system: log phase Staphylococcus aureus Oxford strain; assay: Time kill, HT013006 with neomycin, log phase S. aureus Oxford strain; assay type: cell-based
Protocol: Using the methods described in Example 2, HT013006 was tested in combination with neomycin against log phase Staphylococcus aureus Oxford strain over a time period of 24 hours.

[4] = system: log phase Staphylococcus aureus gentamycin resistant clinical strain; assay: Time kill, HT013006 with gentamycin, gentamycin resistant clinical strain; assay type: cell-based
Protocol: • 1. HT013006 at 16 and 8 μg/ml had no activities against log phase MRSA. • 2. […] The minimal concentration of HT013006 was 2 μg/ml when combined with 0.5 and 0.25 μg/ml of gentamycin. • (b) log phase phase Staphylococcus aureus gentamycin resistant clinical strain by time kill (340)

[5] = system: log phase methicillin resistant Staphylococcus aureus clinical strain; assay: Time kill, HT013006 with gentamycin, log phase MRSA clinical strain; assay type: cell-based
[6] = HT013006 alone at 16, 8, 4 and 2 μg/ml

Cc1cn([C@H]2C[C@H](N=[N+]=[N-])[C@@H](CO)O2)c(=O)[nH]c1=O [AZT, zidovudine]
interaction with the aminoglycosides amikacin and gentamycin (enterobacteria; against enterobacteria): additive or synergistic activity | effect on bacteria (enterobacteria; some enterobacteria): bactericidal effect

CC(Cc1ccc(O)c(O)c1)C(C)Cc1ccc(O)c(O)c1 (stereo not shown) [HT013006, nordihydroguaiaretic acid]
MIC of HT013006 in combination (log phase S. aureus [1]; combined with 0.25 μg/ml of gentamycin): 1 µg/mL | MIC before combination (log phase S. aureus [1]): 64 µg/mL | effect on amphotericin B activity (yeast pathogens): enhancing the effect of amphotericin B | activity in time kill (log phase S. aureus [2]; [6]): no activities | activity in time kill (log phase S. aureus [2]; HT013006 alone at 16 and 8 μg/ml): no activities | activity in time kill ([3]; HT013006 alone at 16, 8, 4 and 2 μg/ml, 24 hours): no activities | minimal concentration of HT013006 which showed maximal enhanced effect ([3]; in combination with neomycin): 8 µg/mL | activity in time kill [4, 6]: no activities | minimal concentration of HT013006 which showed enhanced activities ([4]; combined with 4 and 2 μg/ml of gentamycin): 2 µg/mL | activity in time kill ([5]; HT013006 alone at 16 and 8 μg/ml, log phase MRSA): no activities | minimal concentration of HT013006 in combination ([5]; combined with 0.5 and 0.25 μg/ml of gentamycin): 2 µg/mL

gentamycin [reference compound]
MIC of gentamycin in combination (log phase S. aureus [1]; combined with 16 μg/ml of HT013006): 0.0078 µg/mL | MIC before combination (log phase S. aureus [1]): 0.5 µg/mL | activity in time kill (log phase S. aureus [2]; gentamycin 0.0625 μg/ml): no activity | activity in time kill (log phase S. aureus [2]; gentamycin 0.125 μg/ml): inhibition over 8 hours of treatment, then regrowth was seen | regrowth (log phase S. aureus [2]; gentamycin 0.25 μg/ml): regrowth was seen after 4 hours | kill (log phase S. aureus [2]; gentamycin 0.25 μg/ml, at 4 hours of incubation): 3 log | regrowth (log phase S. aureus [2]; gentamycin 0.5 μg/ml): regrowth was seen after 2 hours | kill (log phase S. aureus [2]; gentamycin 0.5 μg/ml, at 2 hours of incubation): 3.5 log | activity in time kill ([4]; gentamycin at 4, 2, 1 and 0.5 ug/ml, strain 17): no activities
